The values below come from article PMC6822569 (Journal of medicinal chemistry, 2019).

Read-outs that look alike come from different tables or passages of the source.

Series [1] deals with P. falciparum Dd2. Put plainly: 72 h SYBR Green I drug susceptibility, parental Dd2. To be noted: Plasmodium falciparum, DD2, 72 h, read-out: Dd2 IC50. It counts as cell-based.
The subject of series [2] is P. falciparum Dd2. Put plainly: microbe, parasite or virus in culture. It counts as cell-based.
Series [3] in a line: In vivo pharmacokinetic study, single oral dose in mice, plasma and liver.
Series [4] deals with P. falciparum Tm90-C2B. Put plainly: In vitro blood stage antimalarial activity, MSF assay, strain Tm90-C2B. It is filed as cell-based. To be noted: read-out: blood stage IC50 vs P. falciparum Tm90-C2B; Tm90-C2B: Atovaquone resistant clinical isolate.
Series [5] concerns HepG2. Kind of series: HepG2 cytotoxicity assay. It is filed as cell-based, human.
For series [6], the target named is hERG (human-ether-a-go-go-related gene) potassium channel (Homo sapiens, UniProt Q12809). Kind of series: hERG potassium channel current, automatic parallel patch clamp. It counts as cell-based. On the technique in general: The hERG channel carries a current that helps repolarise heart muscle cells.
Series [7] deals with P. yoelii. Kind of series: In vivo blood stage efficacy, modified 4-day test in murine P. yoelii model. To be noted: after 80 mg/kg × 4 days oral dosing.
Series [8] in a line: In vitro metabolic stability, human liver microsomes. To be noted: 1 μM. (In general: Liver microsomes are a subcellular fraction often used to study metabolism.)
The mark [9] stands for this setting: Plasmodium falciparum, DD2, read-out: blood stage IC50 vs P. falciparum Dd2.
Where [10] appears, read: male, ICR, mouse, liver, po, 80 mg/kg.
[11] abbreviates: read-out: blood stage IC50 vs P. falciparum Dd2, Dd2: MDR strain with Old World genetic background.
The mark [12] stands for this setting: liver, single oral dose of 80 mg/kg, mice.
[13] abbreviates: plasma, single oral dose of 80 mg/kg, mice.

Sequence of hERG (human-ether-a-go-go-related gene) potassium channel (Q12809 whole entry): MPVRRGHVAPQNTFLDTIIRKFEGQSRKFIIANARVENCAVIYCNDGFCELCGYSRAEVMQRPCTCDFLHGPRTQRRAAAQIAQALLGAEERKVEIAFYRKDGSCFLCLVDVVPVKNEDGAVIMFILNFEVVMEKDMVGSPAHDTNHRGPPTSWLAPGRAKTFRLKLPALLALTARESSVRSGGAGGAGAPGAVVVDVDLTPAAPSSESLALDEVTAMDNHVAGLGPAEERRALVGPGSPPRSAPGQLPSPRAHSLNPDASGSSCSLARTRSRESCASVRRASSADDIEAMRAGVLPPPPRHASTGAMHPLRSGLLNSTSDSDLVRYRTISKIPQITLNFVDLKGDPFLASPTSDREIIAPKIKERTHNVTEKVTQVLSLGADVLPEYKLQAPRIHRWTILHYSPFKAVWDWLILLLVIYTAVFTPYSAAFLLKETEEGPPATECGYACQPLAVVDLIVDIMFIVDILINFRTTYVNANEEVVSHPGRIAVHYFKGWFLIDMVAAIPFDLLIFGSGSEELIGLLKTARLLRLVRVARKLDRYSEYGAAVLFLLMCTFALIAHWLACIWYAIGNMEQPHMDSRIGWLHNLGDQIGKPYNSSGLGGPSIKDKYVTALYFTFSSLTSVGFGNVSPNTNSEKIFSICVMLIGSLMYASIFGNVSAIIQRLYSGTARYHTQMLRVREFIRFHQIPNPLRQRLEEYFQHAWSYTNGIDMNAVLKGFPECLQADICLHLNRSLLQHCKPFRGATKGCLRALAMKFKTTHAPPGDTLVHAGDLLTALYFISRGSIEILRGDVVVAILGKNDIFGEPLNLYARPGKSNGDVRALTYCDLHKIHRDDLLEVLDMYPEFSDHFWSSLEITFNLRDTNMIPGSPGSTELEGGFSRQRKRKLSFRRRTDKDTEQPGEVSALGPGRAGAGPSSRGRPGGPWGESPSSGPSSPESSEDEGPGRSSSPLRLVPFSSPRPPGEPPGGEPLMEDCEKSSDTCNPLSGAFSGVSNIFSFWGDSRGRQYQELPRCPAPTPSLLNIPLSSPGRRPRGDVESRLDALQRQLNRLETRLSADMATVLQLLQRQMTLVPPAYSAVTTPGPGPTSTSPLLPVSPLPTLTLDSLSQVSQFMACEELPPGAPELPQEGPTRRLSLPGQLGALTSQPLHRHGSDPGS

Turning to `CCN(CC)CCOc1ccc2c(=O)c3c(Cl)c(Cl)ccc3[nH]c2c1` [compound 73, 1,2-Dichloro-6-(2-(diethylamino)ethoxy)acridin-9(10H)-one], the IC50 (usually the point on the concentration scale where inhibition reaches its midpoint) in series [1] was determined as 40 ± 5.5 nM; in series [2] (setting [9]) it was 12 nM.
In the case of `COc1cc(NC(C)CCCN)c2ncccc2c1` (stereo not shown) [Primaquine, reference compound], the Vd/F – broadly, the volume of distribution divided by bioavailability – in series [3] (male, ICR, mouse, in vivo, po, 80 mg/kg) came to 4.42 L/kg.
Take `CN1CCCC1CCOc1ccc2c(=O)c3c(Cl)c(Cl)ccc3[nH]c2c1` (stereo not shown) [compound 76, 1,2-Dichloro-6-(2-(1-methylpyrrolidin-2-yl)ethoxy)acridin-9(10H)-one]: the IC50 in series [2] (setting [9]) was determined as 172 nM.
`CCCN(CCC)CCCOc1ccc2c(=O)c3c(F)cc(F)cc3[nH]c2c1` [compound 52, 6-(3-(Dipropylamino)propoxy)-1,3-difluoroacridin-9(10H)-one]: in series [3] (setting [10]), the CL/F (commonly the apparent clearance, not corrected for the fraction that reaches the circulation) is 5.8 mL/min/kg and the Vd/F came out at 3.48 L/kg.
With `O=c1c2ccc(OCCNC34CC5CC(CC(C5)C3)C4)cc2[nH]c2ccc(Cl)c(Cl)c12` [compound 81, 6-(2-((Adamantan-1-yl)amino)ethoxy)-1,2-dichloroacridin-9(10H)-one], the IC50 in series [2] (setting [9]) was 77 nM.
On to `CC(C)(C)NCCOc1ccc2c(=O)c3c(Cl)c(Cl)ccc3[nH]c2c1` [compound 78, 6-(2-(tert-Butylamino)ethoxy)-1,2-dichloroacridin-9(10H)-one], for which the IC50 in series [2] (setting [9]) came out at 679 nM.
Turning to “1,4-Dichloro-6-(3-(diethylamino)propoxy)acridin-9(10H)-one [compound 100]”, the IC50 is more than 2500 nM in series [4], 77000 nM in series [5] and 1300 nM in series [2] (setting [11]). Moreover, the “selectivity index (SI) (D6)” value in series [5] (SI = IC50 (cytotoxicity)/IC50 (D6)) was 152.
Regarding `CCN(CC)CCOc1ccc2c(=O)c3c(F)cc(F)cc3[nH]c2c1` [compound 46, 6-(2-(Diethylamino)ethoxy)-1,3-difluoroacridin-9(10H)-one], in series [2] (setting [9]), the IC50 was determined as 16 nM.
As for “1,2-Dichloro-6-(3-(dibutylamino)propoxy)acridin-9(10H)-one [compound 75]”, in series [6], the “hERG activity (% inhibition at 10 uM)” value turned out to be 57%. Also, the “cure in murine P. yoelii model” value in series [7] is recorded as “curative”. The IC50 in series [4] is 228 nM. The IC50 in series [5] (read-out: cytotoxicity IC50 vs HepG2, human hepatocarcinoma HepG2 cells) is 54500 nM. Also, the “metabolic stability vs microsomes t1/2, human” value in series [8] was determined as 0.2 h. For the same compound, in series [3] (setting [12]), the AUCinf was 169389 ng·h/mL; the AUClast came out at 167981 ng·h/mL; the CL/F stood at 8.95 mL/min/kg; the Cmax – broadly, the peak of the concentration-time curve – turned out to be 21269 ng/mL. Also, in series [3] (setting [12]), the MRT b was 10.08 h; the Tmax (in general, the time at which the peak concentration occurs) is 2.75 h; the Vz/F came to 3.605 L/kg; the t1/2 came out at 4.63 h. In series [3] (setting [13]), this compound gave an AUCinf of 3239 ng·h/mL, an AUClast of 3049 ng·h/mL, a CL/F of 431.32 mL/min/kg and a Cmax of 226 ng/mL. In series [3] (setting [13]), the MRT b is on record as 6.96 h, the Tmax turned out to be 2.75 h, the Vz/F was 223.865 L/kg and the t1/2 was determined as 6.00 h. The IC50 in series [2] (setting [11]) amounted to 0.041 nM.
`CCCN(CCC)CCOc1ccc2c(=O)c3c(F)cc(F)cc3[nH]c2c1` [compound 48, 6-(2-(Dipropylamino)ethoxy)-1,3-difluoroacridin-9(10H)-one]: the “cure in murine P. yoelii model” value in series [7] is reported as “curative”. Besides, the apparent clearance (CL/F) in series [3] (setting [10]) was 15.5 mL/min/kg; in series [3] (setting [13]) it was 407.77 mL/min/kg. Also, the Vd/F in series [3] (setting [10]) came to 14 L/kg.
In the case of `CCN(CC)CCOc1ccc2c(=O)c3ccc(Cl)cc3[nH]c2c1` [compound 7, 3-chloro-6-(2-(diethylamino)ethoxy)acridin-9(10H)-one], the IC50 in series [2] (setting [9]) came out at 41 nM.
Consider `CCCN(CCC)CCOc1ccc2c(=O)c3c(Cl)c(Cl)ccc3[nH]c2c1` [compound 74, 1,2-Dichloro-6-(2-(dipropylamino)ethoxy)acridin-9(10H)-one], for which the “cure in murine P. yoelii model” value in series [7] is recorded as “curative”. Besides, in series [3] (setting [10]), the CL/F is 2.45 mL/min/kg and the Vd/F came out at 0.392 L/kg. The IC50 in series [2] (setting [9]) was found to be 0.05 nM.
Turning to `CCN(CC)CCOc1ccc2[nH]c3cc(Cl)ccc3c(=O)c2c1` [compound 128, 6-chloro-2-(2-(diethylamino)ethoxy)acridin-9(10H)-one], in series [2] (setting [9]), the IC50 is 132 nM.
Still for that read-out and setting: the same measure for `O=c1c2ccc(OCCCCl)cc2[nH]c2ccc(Cl)c(Cl)c12` [compound 71, 1,2-Dichloro-6-(3-chloropropoxy)acridin-9(10H)-one]: 17 nM.
